Data on 15 compounds can be found in ChEMBL document CHEMBL1255520, “Azole derivatives as histamine H3 receptor antagonists, part I: thiazol-2-yl ethers” (Bioorg Med Chem Lett, 2010).

Usually Ki stands for a measure of affinity in units of concentration, obtained from inhibition or displacement.

This test deals with Histamine H3 receptor (Homo sapiens, UniProt Q9Y5N1). Put plainly: Displacement of [125I]iodoproxyfan human histamine H3 receptor. On the technique in general: Loss of bound radioactivity is the signal in a displacement assay; it reports binding, not function.
Histamine H3 receptor, sequence (Q9Y5N1 whole entry): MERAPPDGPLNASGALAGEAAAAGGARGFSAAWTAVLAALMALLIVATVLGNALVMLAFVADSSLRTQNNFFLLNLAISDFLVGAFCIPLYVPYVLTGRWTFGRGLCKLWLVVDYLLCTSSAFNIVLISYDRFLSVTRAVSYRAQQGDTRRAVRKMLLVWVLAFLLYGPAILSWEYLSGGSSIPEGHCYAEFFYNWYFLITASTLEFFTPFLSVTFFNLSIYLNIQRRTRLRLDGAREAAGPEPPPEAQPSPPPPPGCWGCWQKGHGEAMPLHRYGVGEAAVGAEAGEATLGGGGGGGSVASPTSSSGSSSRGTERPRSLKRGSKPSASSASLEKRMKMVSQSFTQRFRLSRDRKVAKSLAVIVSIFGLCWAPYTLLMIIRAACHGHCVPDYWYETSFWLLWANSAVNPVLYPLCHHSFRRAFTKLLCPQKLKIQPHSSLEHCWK
In turn, `c1ccc(-c2nc(OCCCN3CCCCC3)sc2-c2ccccc2)cc1` showed a Ki of 11.2 nM.
Under `O=C1CCCc2sc(OCCCN3CCCCC3)nc21` stands more than 1000 nM; under `CN(C)CCCOc1nc2c(s1)CCCC2`, more than 1000 nM.
In the case of `CN1CCc2sc(OCCCN3CCCCC3)nc2C1`, the Ki came out at 24 nM.
Under `C1CCN(CCCOc2nc3c(s2)CCN(CCCN2CCCCC2)C3)CC1` stands 20 nM; under `CN(C)CCCOc1nc2c(s1)CCN(C)C2`, 257 nM; under `C1CCN(CCCOc2nc3c(s2)CCOC3)CC1`, 344 nM.
With `CN(C)CCCOc1nc2c(s1)CCCC2=O`, the affinity, expressed as Ki, was 153 nM.
`CCN1CCc2sc(OCCCN3CCCCC3)nc2C1` showed a Ki of 14 nM.
As for `Brc1nc(OCCCN2CCCCC2)sc1-c1ccccc1`, the figure is 93 nM; as for `Cc1nc(OCCCN2CCCCC2)sc1-c1ccccc1`, 41 nM; as for `CN(C)CCCOc1nc2c(s1)CCOC2`, more than 1000 nM.
As for `c1ccc(CN2CCc3sc(OCCCN4CCCCC4)nc3C2)cc1`, the figure is 261 nM; as for `C1CCN(CCCOc2nc3c(s2)CCCC3)CC1`, 357 nM.
Under `CC(=O)c1nc(OCCCN2CCCCC2)sc1C` stands 155 nM.
